Values quoted from earlier work in patent US20100151459A1, “MARKER FOR DETECTING THE PROPOSED EFFICACY OF TREATMENT” (priority 2007, published 2010).

Legend:
[1] = test system: reserpinized (hypodopaminergic) rats
[2] = test system: acutely exacerbated schizophrenic inpatients; conditions: 18 mg/day, 3-week treatment

SMILES: O=C1CCc2ccc(OCCCCN3CCN(c4cccc(Cl)c4Cl)CC3)cc2N1 [aripiprazole]
- locomotor activity [1]: does not increase locomotor activity

SMILES: CNc1cc(OC)c(C(=O)NC2CCN(Cc3ccccc3)C2C)cc1Cl (stereo not drawn) [nemonapride]
- percentage improvement in other subgrouped symptoms (negative, anxiety-depression, excitement and cognitive symptoms) ([2]; between the two genotype groups): similar
- percentage improvement in total BPRS and positive symptoms ([2]; one or two A1 alleles (n=14) vs no A1 allele (n=11)): significantly higher percentage improvement
